Assay results: the NIST ThermoML archive (doi:10.1016/j.tca.2017.07.003)
Numbers after ± are expanded uncertainties.

Conditions: Crystal; DTA

Normal melting temperature [°C] | Structure (SMILES)
304.00 ± 1 | CC(C)(C)NC(=O)c1cc(C(=O)NC(C)(C)C)cc(C(=O)NC(C)(C)C)c1 [N,N',N''-tris(tert-butyl)-1,3,5-benzenetricarboxamide]
229.00 ± 1 | CCCCNC(=O)c1cc(C(=O)NCCCC)cc(C(=O)NCCCC)c1 [N,N',N''-tributyl-1,3,5-benzenetricarboxamide]
300.00 ± 1 | CC(C)CNC(=O)c1cc(C(=O)NCC(C)C)cc(C(=O)NCC(C)C)c1 [N,N',N''-tris(2-methylpropyl)-1,3,5-benzenetricarboxamide]
